In the supplement of paper PMC11208160:

Experiment: recombinant barcode read abundance after kanamycin selection (control-corrected) (log10(CPM+1)); higher = more efficient recombination; sequences stand for … in AGTGCAGAGAAAATCGGCCAGTTTTCTCTGCCTGCAGTCCGCATGCCGT…AGATTTATGCAGCGGACTGCCTTTCTCCCAAAGTGATAAACCGGACAGTATCATGGACCGGTTTTCCCGGTAATCCGTATTTGCAAGGTTGGTTTCACT; site = the 11-nt target
Summary of the method: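 This pooled E. coli screen matched targets with IS621 bridge RNA target-binding loops. Plating was done in duplicate on chloramphenicol/ampicillin LB agar as a control and on chloramphenicol/ampicillin/kanamycin plus 0.1 mM IPTG. Recombination efficiency reflects barcode counts at recombinant junctions as counts per million, averaged and control-corrected. The figures are log10(CPM+1).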
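Further: IS621 recombinase and bridge RNA in Escherichia coli cells.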

Sequence | recombinant barcode read abundance (log10)
GTCCTATCTTGGGTTCTAACCTGTTGCTA (site AGGTCTACTGT) | 0.146
GTCCTATCTTGGGTTCTAACCTGTTGCTA (site GTCCTATCTTA) | 0.656
GTCCTGTCTTGGGTTCTAACCTGTTGCCG (site GTCCTGTCTCG) | 1.16
GTCCTGTCTTGGGTTCTAACCTGTTGCCG (site GTCGTGTCTCG) | 0.397
GTCGACCCTTGGGTTCTAACCTGTTGCCT (site GTCGACCCTAG) | 1.98
GTCGACCCTTGGGTTCTAACCTGTTGCCT (site GTCGACGCTAG) | 0.136
GTCGCGACTTGGGTTCTAACCTGTTGCCT (site GTCGCGACTAG) | 0.0792
GTCGCGACTTGGGTTCTAACCTGTTGCCT (site GTCGCGCCTAG) | 0.353
GTCGCGACTTGGGTTCTAACCTGTTGCCT (site GTCGCGGCTAG) | 0.145
GTCGCGACTTGGGTTCTAACCTGTTGCCT (site GTCGCGTCTAG) | 0.215
GTCGGAGCTTGGGTTCTAACCTGTTGCCA (site GTCCGAACTTG) | 0.0692
GTCGGAGCTTGGGTTCTAACCTGTTGCCA (site GTCGGAGCTTG) | 0.959
GTCGGGCCTTGGGTTCTAACCTGTTGCCT (site ATCGGGCCTAG) | 0.0962
GTCGGGCCTTGGGTTCTAACCTGTTGCCT (site CTCGGGCCTAG) | 0.0668
GTCGGGCCTTGGGTTCTAACCTGTTGCCT (site GTCGGGCCTAG) | 0.686
GTCGGGCCTTGGGTTCTAACCTGTTGCCT (site TTCGGGCCTAG) | 0.126
GTCGTGTCTTGGGTTCTAACCTGTTGCCG (site GTCCTGTCTCG) | 0.0845
GTCGTGTCTTGGGTTCTAACCTGTTGCCG (site GTCGTGTCTCG) | 1.28
GTCGTTGCTTGGGTTCTAACCTGTTGCCT (site ATCGTTGCTAG) | 0.522
GTCGTTGCTTGGGTTCTAACCTGTTGCCT (site CTCGTTGCTAG) | 0.0407
GTCGTTGCTTGGGTTCTAACCTGTTGCCT (site GTCGTTGCTAG) | 1.07
GTCGTTGCTTGGGTTCTAACCTGTTGCCT (site TTCGTTGCTAG) | 1.19

Sequence | recombinant barcode read abundance (log10)
GTCTAATCTTGGGTTCTAACCTGTTGCCT (site GTCTAATCTAG) | 0.719
GTCTAATCTTGGGTTCTAACCTGTTGCCT (site GTCTCATCTAG) | 0.271
GTCTAATCTTGGGTTCTAACCTGTTGCCT (site GTCTGATCTAG) | 0.174
GTCTAATCTTGGGTTCTAACCTGTTGCCT (site GTCTTATCTAG) | 0.0315
GTCTACGCTTGGGTTCTAACCTGTTGCCA (site GTCTAAGCTCG) | 0.0189
GTCTACGCTTGGGTTCTAACCTGTTGCCA (site GTCTACGCTTG) | 0.253
GTCTCACCTTGGGTTCTAACCTGTTGCGG (site GTATCTCCTCC) | 0.094
GTCTCACCTTGGGTTCTAACCTGTTGCGG (site GTCTCACCTCC) | 0.91
GTCTGTTCTTGGGTTCTAACCTGTTGCCT (site GACTGTTCTAG) | 0.17
GTCTGTTCTTGGGTTCTAACCTGTTGCCT (site GCCTGTTCTAG) | 0.071
GTCTGTTCTTGGGTTCTAACCTGTTGCCT (site GGCTGTTCTAG) | 0.16
GTCTGTTCTTGGGTTCTAACCTGTTGCCT (site GTCTGTTCTAG) | 0.852
GTCTTCTCTTGGGTTCTAACCTGTTGCTT (site GTCTACTCTCA) | 0.0691
GTCTTCTCTTGGGTTCTAACCTGTTGCTT (site GTCTTCTCTAA) | 0.487
GTGAAGCCTTGGGTTCTAACCTGTTGCCA (site GTGAAGCCTTG) | 0.758
GTGAAGCCTTGGGTTCTAACCTGTTGCCA (site GTGTATCCTTG) | 0.165
GTGAGAGCTTGGGTTCTAACCTGTTGCGG (site GTGAGAGCTCC) | 1.43
GTGAGAGCTTGGGTTCTAACCTGTTGCGG (site GTGAGCACTCC) | 0.0453
GTGAGCACTTGGGTTCTAACCTGTTGCTA (site AATTAGCCTAG) | 0.0422
GTGAGCACTTGGGTTCTAACCTGTTGCTA (site GTGAGCACTTA) | 0.337
GTGAGGACTTGGGTTCTAACCTGTTGCCT (site ATGAGGACTAG) | 0.739
GTGAGGACTTGGGTTCTAACCTGTTGCCT (site CTGAGGACTAG) | 0.133

Sequence | recombinant barcode read abundance (log10)
GTGAGGACTTGGGTTCTAACCTGTTGCCT (site GTGAGGACTAG) | 1.49
GTGAGGACTTGGGTTCTAACCTGTTGCCT (site TTGAGGACTAG) | 0.316
GTGAGGACTTGGGTTCTAACCTGTTGCGT (site GTGAGGACTAC) | 3.11
GTGAGGACTTGGGTTCTAACCTGTTGCGT (site GTGCGGACTAC) | 0.236
GTGAGGACTTGGGTTCTAACCTGTTGCTG (site GTGAGGACTCA) | 2.68
GTGAGGACTTGGGTTCTAACCTGTTGCTG (site GTGTGGACTCT) | 0.0356
GTGATAGCTTGGGTTCTAACCTGTTGCGG (site GATATAGCTCC) | 0.16
GTGATAGCTTGGGTTCTAACCTGTTGCGG (site GTGATAGCTCC) | 1.12
GTGATCCCTTGGGTTCTAACCTGTTGCCT (site GAGATCCCTAG) | 0.585
GTGATCCCTTGGGTTCTAACCTGTTGCCT (site GTGATCCCTAG) | 1.18
GTGCACCCTTGGGTTCTAACCTGTTGCTT (site GGGCATCCTAA) | 0.115
GTGCACCCTTGGGTTCTAACCTGTTGCTT (site GTGCACCCTAA) | 1.57
GTGCCTGCTTGGGTTCTAACCTGTTGCCT (site GCGCATGCTAG) | 0.039
GTGCCTGCTTGGGTTCTAACCTGTTGCCT (site GTGCCTGCTAG) | 1.05
GTGCGCCCTTGGGTTCTAACCTGTTGCGG (site GTGCGCCCTAC) | 0.369
GTGCGCCCTTGGGTTCTAACCTGTTGCGG (site GTGCGCCCTCC) | 1.28
GTGCGCTCTTGGGTTCTAACCTGTTGCGC (site CCAGCTGCTAG) | 0.0659
GTGCGCTCTTGGGTTCTAACCTGTTGCGC (site GTGCGCTCTGC) | 0.145
GTGGAAGCTTGGGTTCTAACCTGTTGCCT (site GAGGAAGCTAG) | 0.316
GTGGAAGCTTGGGTTCTAACCTGTTGCCT (site GCGGAAGCTAG) | 0.367
GTGGAAGCTTGGGTTCTAACCTGTTGCCT (site GGGGAAGCTAG) | 0.262
GTGGAAGCTTGGGTTCTAACCTGTTGCCT (site GTGGAAGCTAG) | 1.1

Sequence | recombinant barcode read abundance (log10)
GTGGATGCTTGGGTTCTAACCTGTTGCCT (site GGGGATTCTAG) | 0.28
GTGGATGCTTGGGTTCTAACCTGTTGCCT (site GTGGATGCTAG) | 1.6
GTGGGCCCTTGGGTTCTAACCTGTTGCCT (site GTATGCCCTAG) | 0.02
GTGGGCCCTTGGGTTCTAACCTGTTGCCT (site GTGGGCCCTAG) | 2.07
GTGGGCCCTTGGGTTCTAACCTGTTGCTG (site ATCGGCCCTCA) | 0.302
GTGGGCCCTTGGGTTCTAACCTGTTGCTG (site GTGGGCCCTCA) | 2.73
GTGGGCTCTTGGGTTCTAACCTGTTGCCT (site CTGGGCTCTTG) | 0.0529
GTGGGCTCTTGGGTTCTAACCTGTTGCCT (site GTGGGCTCTAG) | 2.01
GTGGTAGCTTGGGTTCTAACCTGTTGCCT (site GTGGTAACTAG) | 0.857
GTGGTAGCTTGGGTTCTAACCTGTTGCCT (site GTGGTACCTAG) | 0.209
GTGGTAGCTTGGGTTCTAACCTGTTGCCT (site GTGGTAGCTAG) | 1.42
GTGGTAGCTTGGGTTCTAACCTGTTGCCT (site GTGGTATCTAG) | 0.0998
GTGGTGGCTTGGGTTCTAACCTGTTGCCT (site GTGGTGGCTAG) | 0.764
GTGGTGGCTTGGGTTCTAACCTGTTGCCT (site GTTGGGGCTAG) | 0.151
GTGTAGGCTTGGGTTCTAACCTGTTGCAG (site GTGTAGGCTCT) | 2.66
GTGTAGGCTTGGGTTCTAACCTGTTGCAG (site GTGTAGTCTCG) | 0.0205
GTGTATCCTTGGGTTCTAACCTGTTGCCA (site GTGAAGCCTTG) | 0.186
GTGTATCCTTGGGTTCTAACCTGTTGCCA (site GTGTATCCTTG) | 0.196
GTGTATTCTTGGGTTCTAACCTGTTGCCT (site ACTGTCACTCC) | 0.0809
GTGTATTCTTGGGTTCTAACCTGTTGCCT (site GTGTATTCTAG) | 1.44
